Laboratory results as given in ChEMBL document CHEMBL4800729 (2021).

How the values were obtained:
[1] = target: Serine/threonine-protein kinase 16 (Homo sapiens) (UniProt O75716); assay: STK16(h) Millipore kinase panel; conditions: Compound concentration 1.0 uM
[2] = target: Serine/threonine-protein kinase DCLK3 (Homo sapiens) (UniProt Q9C098); assay: DCAMKL3(h) Millipore kinase panel; conditions: Compound concentration 1.0 uM
[3] = target: Serine/threonine-protein kinase PAK 4 (Homo sapiens) (UniProt O96013); assay: PAK4(h) Millipore kinase panel; conditions: Compound concentration 1.0 uM
[4] = target: CDK3/cyclin E (Homo sapiens) (UniProt P24864+O96020+Q00526); assay: CDK3/cyclinE(h) Millipore kinase panel; assay type: protein-complex assay; conditions: Compound concentration 1.0 uM
[5] = target: D(4) dopamine receptor (Homo sapiens) (UniProt P21917); conditions: Compound concentration 10.0 uM
Chain of D(4) dopamine receptor (Homo sapiens) (P21917 whole entry): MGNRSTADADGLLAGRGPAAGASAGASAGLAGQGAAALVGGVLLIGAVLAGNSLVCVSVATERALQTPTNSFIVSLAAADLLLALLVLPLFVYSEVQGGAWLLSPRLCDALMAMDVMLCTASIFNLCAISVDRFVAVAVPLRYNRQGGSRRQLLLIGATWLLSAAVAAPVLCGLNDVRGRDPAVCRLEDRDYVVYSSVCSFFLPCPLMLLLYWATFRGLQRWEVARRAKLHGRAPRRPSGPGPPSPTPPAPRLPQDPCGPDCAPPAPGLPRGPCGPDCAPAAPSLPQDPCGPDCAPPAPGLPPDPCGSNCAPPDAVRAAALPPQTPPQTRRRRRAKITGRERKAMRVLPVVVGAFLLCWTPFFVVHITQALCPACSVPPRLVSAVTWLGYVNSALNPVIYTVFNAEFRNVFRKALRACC

[6] = target: Serine/threonine-protein kinase LATS1 (Homo sapiens) (UniProt O95835); assay: LATS1(h) Millipore kinase panel; conditions: Compound concentration 1.0 uM
[7] = target: Tyrosine-protein kinase Lyn (Homo sapiens) (UniProt P07948); assay: Lyn(h) Millipore kinase panel; conditions: Compound concentration 1.0 uM
Chain of Tyrosine-protein kinase Lyn (Homo sapiens) (P07948 2-512 limits assumed): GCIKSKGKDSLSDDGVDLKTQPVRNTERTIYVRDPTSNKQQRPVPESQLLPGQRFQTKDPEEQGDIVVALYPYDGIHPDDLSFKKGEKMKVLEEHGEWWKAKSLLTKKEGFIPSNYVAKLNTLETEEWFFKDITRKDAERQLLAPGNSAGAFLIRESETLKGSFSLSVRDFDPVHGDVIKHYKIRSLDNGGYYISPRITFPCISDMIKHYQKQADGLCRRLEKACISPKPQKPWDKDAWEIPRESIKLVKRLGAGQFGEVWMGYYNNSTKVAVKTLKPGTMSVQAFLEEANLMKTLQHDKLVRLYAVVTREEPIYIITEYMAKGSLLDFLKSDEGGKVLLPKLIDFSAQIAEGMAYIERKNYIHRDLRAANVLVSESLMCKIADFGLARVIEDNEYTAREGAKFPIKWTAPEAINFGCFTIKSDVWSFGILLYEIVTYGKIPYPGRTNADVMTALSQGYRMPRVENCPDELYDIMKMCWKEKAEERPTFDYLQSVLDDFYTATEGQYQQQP

[8] = target: Mitogen-activated protein kinase kinase kinase 11 (Homo sapiens) (UniProt Q16584); assay: MLK3(h) Millipore kinase panel; conditions: Compound concentration 1.0 uM
[9] = target: Dual specificity protein kinase CLK4 (Homo sapiens) (UniProt Q9HAZ1); assay: CLK4(h) Millipore kinase panel; conditions: Compound concentration 1.0 uM
[10] = target: TGF-beta receptor type-2 (Homo sapiens) (UniProt P37173); assay: TGFBR2(h) Millipore kinase panel; conditions: Compound concentration 1.0 uM
[11] = target: 3-hydroxy-3-methylglutaryl-coenzyme A reductase (Homo sapiens) (UniProt P04035); assay: Inhibition of HMG-CoA Reductase at compound concentration of 10.0 uM in the Eurofins-Panlabs enzyme assay (Eurofins_assay_124010); design: substrate with concentration; conditions: Compound concentration 10.0 uM
[12] = target: cAMP-dependent protein kinase catalytic subunit beta (Homo sapiens) (UniProt P22694); assay: PKACbeta(h) Millipore kinase panel; conditions: Compound concentration 1.0 uM
[13] = target: Tyrosine-protein kinase ITK/TSK (Homo sapiens) (UniProt Q08881); assay: Itk(h) Millipore kinase panel; conditions: Compound concentration 1.0 uM
Chain of Tyrosine-protein kinase ITK/TSK (Homo sapiens) (Q08881 whole entry): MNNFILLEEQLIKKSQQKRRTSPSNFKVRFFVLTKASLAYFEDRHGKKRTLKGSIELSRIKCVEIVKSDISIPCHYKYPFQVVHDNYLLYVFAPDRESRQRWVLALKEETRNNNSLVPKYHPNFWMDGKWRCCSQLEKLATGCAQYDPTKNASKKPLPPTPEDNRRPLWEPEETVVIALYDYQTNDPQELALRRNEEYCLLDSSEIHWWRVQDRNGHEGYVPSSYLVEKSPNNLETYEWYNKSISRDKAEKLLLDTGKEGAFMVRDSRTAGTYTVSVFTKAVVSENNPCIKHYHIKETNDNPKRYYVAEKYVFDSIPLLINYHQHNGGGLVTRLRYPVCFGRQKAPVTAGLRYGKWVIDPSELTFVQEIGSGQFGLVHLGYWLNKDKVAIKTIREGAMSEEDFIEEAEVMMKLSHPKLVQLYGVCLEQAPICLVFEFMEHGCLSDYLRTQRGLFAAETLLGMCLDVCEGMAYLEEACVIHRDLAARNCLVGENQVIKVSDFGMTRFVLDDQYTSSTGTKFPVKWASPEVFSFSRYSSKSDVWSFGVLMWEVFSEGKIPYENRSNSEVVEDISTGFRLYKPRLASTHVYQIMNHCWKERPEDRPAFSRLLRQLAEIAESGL

[14] = target: Serine/threonine-protein kinase PLK2 (Homo sapiens) (UniProt Q9NYY3); assay: Snk(h) Millipore kinase panel; conditions: Compound concentration 1.0 uM
[15] = target: cGMP-dependent protein kinase 1 (Homo sapiens) (UniProt Q13976); assay: PKG1alpha(h) Millipore kinase panel; conditions: Compound concentration 1.0 uM
[16] = target: T1, Muscarinic acetylcholine receptor M1 (Homo sapiens) (UniProt P11229); conditions: Compound concentration 10.0 uM
T1 sequence (whole entry): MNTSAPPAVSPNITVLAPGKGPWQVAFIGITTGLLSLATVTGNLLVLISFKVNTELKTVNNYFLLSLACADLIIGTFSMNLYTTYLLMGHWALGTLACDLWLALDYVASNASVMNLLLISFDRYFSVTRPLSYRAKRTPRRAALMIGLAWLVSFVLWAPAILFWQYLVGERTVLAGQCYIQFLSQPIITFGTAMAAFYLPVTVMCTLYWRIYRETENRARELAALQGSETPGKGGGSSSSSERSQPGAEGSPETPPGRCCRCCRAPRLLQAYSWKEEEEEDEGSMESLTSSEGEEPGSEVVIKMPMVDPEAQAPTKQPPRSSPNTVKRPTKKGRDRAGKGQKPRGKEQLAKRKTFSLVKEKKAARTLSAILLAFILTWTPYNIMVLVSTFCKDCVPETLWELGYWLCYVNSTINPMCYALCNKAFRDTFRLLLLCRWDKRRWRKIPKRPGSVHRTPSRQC

[17] = target: Ephrin type-B receptor 4 (Homo sapiens) (UniProt P54760); assay: EphB4(h) Millipore kinase panel; conditions: Compound concentration 1.0 uM
[18] = target: Protein kinase C zeta type (Homo sapiens) (UniProt Q05513); assay: PKCzeta(h) Millipore kinase panel; conditions: Compound concentration 1.0 uM
Chain of Protein kinase C zeta type (Homo sapiens) (Q05513 whole entry): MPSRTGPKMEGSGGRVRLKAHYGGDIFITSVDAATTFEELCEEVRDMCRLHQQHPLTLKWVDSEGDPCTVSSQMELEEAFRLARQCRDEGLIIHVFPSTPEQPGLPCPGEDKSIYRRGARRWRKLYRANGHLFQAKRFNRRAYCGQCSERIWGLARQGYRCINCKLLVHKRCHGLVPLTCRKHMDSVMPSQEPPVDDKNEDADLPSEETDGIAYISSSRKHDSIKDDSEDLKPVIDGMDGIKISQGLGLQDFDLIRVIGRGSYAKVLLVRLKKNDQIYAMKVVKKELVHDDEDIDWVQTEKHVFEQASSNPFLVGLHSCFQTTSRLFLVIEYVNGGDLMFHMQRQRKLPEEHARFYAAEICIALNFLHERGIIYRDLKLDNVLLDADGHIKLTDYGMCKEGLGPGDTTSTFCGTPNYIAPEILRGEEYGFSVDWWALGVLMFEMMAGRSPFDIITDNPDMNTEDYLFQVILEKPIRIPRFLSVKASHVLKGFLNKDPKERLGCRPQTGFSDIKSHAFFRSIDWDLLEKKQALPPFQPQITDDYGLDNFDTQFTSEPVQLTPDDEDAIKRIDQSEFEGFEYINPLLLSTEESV

[19] = target: Beta-1 adrenergic receptor (Homo sapiens) (UniProt P08588); conditions: Compound concentration 10.0 uM
Chain of Beta-1 adrenergic receptor (Homo sapiens) (P08588 whole entry, looked up): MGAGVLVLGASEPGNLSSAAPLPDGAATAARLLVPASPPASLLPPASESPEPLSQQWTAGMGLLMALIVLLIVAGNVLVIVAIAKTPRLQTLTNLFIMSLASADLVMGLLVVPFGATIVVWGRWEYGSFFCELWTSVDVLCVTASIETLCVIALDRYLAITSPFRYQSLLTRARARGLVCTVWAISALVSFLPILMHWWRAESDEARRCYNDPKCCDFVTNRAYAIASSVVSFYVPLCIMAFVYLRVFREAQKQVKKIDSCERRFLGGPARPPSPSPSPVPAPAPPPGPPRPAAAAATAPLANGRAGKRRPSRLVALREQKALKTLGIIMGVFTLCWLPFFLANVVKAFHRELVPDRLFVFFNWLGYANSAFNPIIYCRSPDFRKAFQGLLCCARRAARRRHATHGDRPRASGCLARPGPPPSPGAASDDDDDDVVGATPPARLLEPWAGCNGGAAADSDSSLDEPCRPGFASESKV

[20] = target: 5-hydroxytryptamine receptor 7 (Homo sapiens, UniProt P34969); assay: GPCRScan assay: inhibition of 5-HT7A; design: radioligand conc. used [nm] 5.0 – 6.0, parental cells Stable HEK
Chain of 5-hydroxytryptamine receptor 7 (P34969 whole entry): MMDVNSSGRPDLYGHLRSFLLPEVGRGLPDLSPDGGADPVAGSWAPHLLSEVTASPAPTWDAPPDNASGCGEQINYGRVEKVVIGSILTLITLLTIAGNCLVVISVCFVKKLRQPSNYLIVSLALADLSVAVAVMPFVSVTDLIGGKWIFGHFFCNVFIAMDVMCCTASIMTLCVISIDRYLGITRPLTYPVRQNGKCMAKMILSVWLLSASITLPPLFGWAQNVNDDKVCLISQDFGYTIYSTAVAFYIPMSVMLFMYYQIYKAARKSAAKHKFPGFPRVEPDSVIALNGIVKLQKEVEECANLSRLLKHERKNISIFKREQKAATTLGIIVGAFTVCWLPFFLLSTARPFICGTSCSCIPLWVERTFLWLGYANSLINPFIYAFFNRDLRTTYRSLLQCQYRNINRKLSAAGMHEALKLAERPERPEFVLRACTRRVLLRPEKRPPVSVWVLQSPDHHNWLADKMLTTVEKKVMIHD

[21] = target: Serine/threonine-protein kinase 33 (Homo sapiens) (UniProt Q9BYT3); assay: STK33(h) Millipore kinase panel; conditions: Compound concentration 1.0 uM
[22] = target: Serine/threonine-protein kinase OSR1 (Homo sapiens) (UniProt O95747); assay: OSR1(h) Millipore kinase panel; conditions: Compound concentration 1.0 uM
[23] = target: Serine-protein kinase ATM (Homo sapiens) (UniProt Q13315); assay: ATM(h) Millipore kinase panel; conditions: Compound concentration 1.0 uM
[24] = target: Serine/threonine-protein kinase WNK4 (Homo sapiens) (UniProt Q96J92); assay: WNK4(h) Millipore kinase panel; conditions: Compound concentration 1.0 uM
[25] = target: Delta-type opioid receptor (Homo sapiens) (UniProt P41143); conditions: Compound concentration 10.0 uM
[26] = target: Inhibitor of nuclear factor kappa-B kinase subunit beta (Homo sapiens) (UniProt O14920); assay: IKKbeta(h) Millipore kinase panel; conditions: Compound concentration 1.0 uM
[27] = target: Mitogen-activated protein kinase kinase kinase 5 (Homo sapiens) (UniProt Q99683); assay: ASK1(h) Millipore kinase panel; conditions: Compound concentration 1.0 uM
[28] = target: Serine/threonine-protein kinase WNK1 (Homo sapiens) (UniProt Q9H4A3); assay: WNK1(h) Millipore kinase panel; conditions: Compound concentration 1.0 uM
[29] = target: Glutamate receptor ionotropic, kainate (Rattus norvegicus) (UniProt P22756+Q01812+P42260+P42264+Q63273); conditions: Compound concentration 10.0 uM
[30] = target: Proto-oncogene tyrosine-protein kinase receptor Ret (Homo sapiens) (UniProt P07949); assay: Ret(h) Millipore kinase panel; conditions: Compound concentration 1.0 uM
[31] = target: Tyrosine-protein kinase ZAP-70 (Homo sapiens) (UniProt P43403); assay: ZAP_70(h) Millipore kinase panel; conditions: Compound concentration 1.0 uM
[32] = target: Serine/threonine-protein kinase WNK3 (Homo sapiens) (UniProt Q9BYP7); assay: WNK3(h) Millipore kinase panel; conditions: Compound concentration 1.0 uM
Chain of Serine/threonine-protein kinase WNK3 (Homo sapiens) (Q9BYP7 whole entry): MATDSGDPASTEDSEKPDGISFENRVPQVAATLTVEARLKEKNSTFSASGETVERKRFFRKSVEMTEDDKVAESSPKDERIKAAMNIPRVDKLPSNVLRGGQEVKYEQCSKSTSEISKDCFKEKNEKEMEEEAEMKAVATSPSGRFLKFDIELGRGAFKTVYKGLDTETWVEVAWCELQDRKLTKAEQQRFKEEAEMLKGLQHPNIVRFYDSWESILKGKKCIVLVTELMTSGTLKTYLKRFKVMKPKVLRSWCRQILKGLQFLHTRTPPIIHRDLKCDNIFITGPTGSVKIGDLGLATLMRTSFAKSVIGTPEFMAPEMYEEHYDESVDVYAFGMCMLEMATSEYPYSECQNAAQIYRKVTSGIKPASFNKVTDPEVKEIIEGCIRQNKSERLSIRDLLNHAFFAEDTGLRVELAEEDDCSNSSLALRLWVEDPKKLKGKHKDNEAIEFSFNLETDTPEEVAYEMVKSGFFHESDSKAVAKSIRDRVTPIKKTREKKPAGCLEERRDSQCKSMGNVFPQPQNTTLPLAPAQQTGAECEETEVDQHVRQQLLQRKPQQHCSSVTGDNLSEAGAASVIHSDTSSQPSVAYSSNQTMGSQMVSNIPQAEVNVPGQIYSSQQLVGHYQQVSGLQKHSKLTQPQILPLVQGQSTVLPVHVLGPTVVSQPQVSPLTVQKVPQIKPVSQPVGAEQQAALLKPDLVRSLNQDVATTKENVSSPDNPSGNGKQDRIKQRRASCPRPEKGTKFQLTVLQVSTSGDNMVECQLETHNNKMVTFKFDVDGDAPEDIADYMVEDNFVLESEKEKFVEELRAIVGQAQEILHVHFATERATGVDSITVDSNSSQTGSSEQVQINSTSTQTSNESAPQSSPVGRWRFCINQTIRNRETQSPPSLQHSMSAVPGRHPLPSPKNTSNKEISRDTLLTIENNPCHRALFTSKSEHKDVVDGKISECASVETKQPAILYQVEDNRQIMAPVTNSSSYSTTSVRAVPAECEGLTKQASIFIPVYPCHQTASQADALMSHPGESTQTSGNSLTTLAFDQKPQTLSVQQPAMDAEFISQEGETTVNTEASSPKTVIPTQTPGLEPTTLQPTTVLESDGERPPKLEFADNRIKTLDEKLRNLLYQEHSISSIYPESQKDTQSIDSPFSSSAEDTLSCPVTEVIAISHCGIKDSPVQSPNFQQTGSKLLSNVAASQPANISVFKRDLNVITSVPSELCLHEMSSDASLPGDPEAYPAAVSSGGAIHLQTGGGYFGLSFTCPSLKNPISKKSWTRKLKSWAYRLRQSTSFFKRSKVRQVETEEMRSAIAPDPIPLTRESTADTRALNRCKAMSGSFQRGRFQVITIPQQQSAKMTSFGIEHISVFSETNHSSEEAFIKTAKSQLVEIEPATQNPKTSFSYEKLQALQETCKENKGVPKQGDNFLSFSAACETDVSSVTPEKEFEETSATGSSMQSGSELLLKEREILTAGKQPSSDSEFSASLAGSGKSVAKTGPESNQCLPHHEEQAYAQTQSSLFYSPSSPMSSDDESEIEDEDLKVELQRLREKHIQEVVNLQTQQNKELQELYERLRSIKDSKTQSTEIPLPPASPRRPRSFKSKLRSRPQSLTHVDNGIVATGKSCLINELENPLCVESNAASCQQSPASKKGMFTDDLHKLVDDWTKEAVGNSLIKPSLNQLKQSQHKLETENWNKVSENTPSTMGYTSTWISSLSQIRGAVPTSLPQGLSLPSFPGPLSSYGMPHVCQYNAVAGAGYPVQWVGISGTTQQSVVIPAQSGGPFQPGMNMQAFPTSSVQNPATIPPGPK

[33] = target: Ephrin type-A receptor 8 (Homo sapiens) (UniProt P29322); assay: EphA8(h) Millipore kinase panel; conditions: Compound concentration 1.0 uM
[34] = target: Aurora kinase C (Homo sapiens) (UniProt Q9UQB9); assay: Aurora_C(h) Millipore kinase panel; conditions: Compound concentration 1.0 uM
[35] = target: Mitogen-activated protein kinase kinase kinase 2 (Homo sapiens) (UniProt Q9Y2U5); assay: MEKK2(h) Millipore kinase panel; conditions: Compound concentration 1.0 uM
[36] = target: Purinergic P2Y (Rattus norvegicus) (UniProt O35811+Q9EPX4+P49651+Q63371+P41232+O35881+Q6GUG4); assay: Inhibition of Purinergic P2Y at compound concentration of 10.0 uM in the Eurofins-Panlabs radioligand binding assay (Eurofins_assay_268820); assay type: protein assay; design: ligand concentration 0.1 nM; conditions: Compound concentration 10.0 uM
[37] = target: Ephrin type-A receptor 3 (Homo sapiens) (UniProt P29320); assay: EphA3(h) Millipore kinase panel; conditions: Compound concentration 1.0 uM
[38] = target: PI3K p110 beta/p85 alpha (Homo sapiens) (UniProt P27986+P42338); assay: PI3 Kinase (p110b/p85a)(h) Millipore kinase panel; assay type: protein-complex assay; conditions: Compound concentration 1.0 uM
[39] = target: Interferon-induced, double-stranded RNA-activated protein kinase (Homo sapiens) (UniProt P19525); assay: PKR(h) Millipore kinase panel; conditions: Compound concentration 1.0 uM
[40] = target: Mitogen-activated protein kinase 11 (Homo sapiens) (UniProt Q15759); assay: SAPK2b(h) Millipore kinase panel; conditions: Compound concentration 1.0 uM

CC[C@@H](Nc1c(C#N)c(-c2ccc(-c3cccc(C)c3F)cc2)nc2cnccc12)C(=O)O [BAY-091]
inhibition [1]: 9.54%
inhibition [2]: 5.32%
inhibition [3]: 1.36%
inhibition [4]: 2.41%
inhibition [5]: 2.8%
inhibition [6]: 8.31%
inhibition [7]: 12.5%
inhibition [8]: 21.1%
inhibition [9]: 18.8%
inhibition [10]: 19.3%
inhibition [11]: -7%
inhibition [12]: 6.73%
inhibition [13]: 9.18%
inhibition [14]: 7.48%
inhibition [15]: 6.77%
inhibition [16]: 13%
inhibition [17]: 11.8%
inhibition [18]: -2.41%
inhibition [19]: 4.09%
Ki [20]: > 10 µM
pKi [20]: < 5
inhibition [21]: 2.82%
inhibition [22]: -3.86%
inhibition [23]: 0.32%
inhibition [24]: 11.1%
inhibition [25]: 12.9%
inhibition [26]: 2.85%
inhibition [27]: -9.98%
inhibition [28]: 14.7%
inhibition [29]: -2%
inhibition [30]: -3.56%
inhibition [31]: 2.99%
inhibition [32]: -1.89%
inhibition [33]: -6.72%
inhibition [34]: 4.64%
inhibition [35]: 12.8%
inhibition [36]: 31%
inhibition [37]: 4.71%
inhibition [38]: 0.43%
inhibition [39]: 13.9%
inhibition [40]: -2.08%
